1 compound from ChEMBL document CHEMBL6177950, “Discovery of potent and selective CDK2 inhibitors with high safety and favorable bioavailability for the treatment of cancer” (Eur J Med Chem, 2025) can be followed below.

The structures appear in SMILES notation. Calls of active or inactive are those of the source. No cut-off for these calls is given here.

The subject of series [1] is OVCAR-3. As to the kind of experiment: Induction of apoptosis in human OVCAR-3 cells assessed as early apoptotic cells at 1 uM incubated for 24 hrs by Annexin V-FITC/PI staining based flow cytometry analysis (reference value: 1.25%). The format is functional.
A short description of series [2]: Antiproliferative activity against Palbociclib-resistance human MCF7 cells assessed as cell growth inhibition. The format is functional, cell-based, Palbociclib-resistant MCF7 cell.
The subject of series [3] is OVCAR-3. As to the kind of experiment: Upregulation of inflammation-related pathway gene expression in human OVCAR-3 cells by GSEA. The series is classed as functional, cell-based.
The subject of series [4] is OVCAR-3. As to the kind of experiment: Inhibition of colony formation in CCNE1-amplified human OVCAR-3 incubated for 2 weeks by crystal violet staining based inverted microscopic analysis. The format is functional, cell-based. The settings on record: dose 1-4 µM.
The nature of series [5]: AUC (0 to infinity) in Sprague-Dawley rat at 2 mg/kg, iv by LC-MS/MS analysis. The format is ADME, organism-based. The settings on record: in vivo.
Series [6] can be described thus: Acute toxicity in ICR mouse assessed as pathological changes in spleen at 1000 to 2500 mg/kg, po administered once for 14 days by H and E staining analysis. To be noted: in vivo, 336 h, dose 1000-2500 mg/kg, time 14 day. The series is classed as organism-based.
Series [7] has as its system OVCAR-3. Put plainly: Induction of apoptosis in human OVCAR-3 cells assessed as viable cells at 1 uM incubated for 24 hrs by Annexin V-FITC/PI staining based flow cytometry analysis (reference value: 95.2%). The format is functional. The settings on record: read-out: Activity.
Series [8] can be described thus: Antiproliferative activity against CCNE1-amplified human OVCAR-3 cells assessed as cell growth inhibition incubated for 3 days by CCK8 assay. The series is classed as functional, cell-based. To be noted: OVCAR-3, 72 h.
Series [9] concerns the target CDK1/Cyclin A (Homo sapiens, UniProt P06493). Put plainly: Inhibition of CDK1/Cyclin A2 (unknown origin) pre-incubated for 10 mins followed by ATP/substrate addition and measured after 60 mins by ADP-Glo assay. The series is classed as protein-complex assay.
Series [10] is described as follows: Clearance in Sprague-Dawley rat at 2 mg/kg, iv by LC-MS/MS analysis. The format is ADME, organism-based. The settings on record: in vivo.
Series [11] relates to OVCAR-3. Put plainly: Induction of apoptosis in human OVCAR-3 cells assessed as reduction in Bcl2 expression incubated for 24 hrs by Western blot analysis. The series is classed as functional, cell-based.
For series [12], the target named is CDK6/cyclin D3 (Homo sapiens, UniProt Q00534). As to the kind of experiment: Inhibition of CDK6/Cyclin D3 (unknown origin) pre-incubated for 10 mins followed by ATP/substrate addition and measured after 120 mins by ADP-Glo assay. The series is classed as protein-complex assay.
CDK6/cyclin D3, sequence (P30281 whole entry): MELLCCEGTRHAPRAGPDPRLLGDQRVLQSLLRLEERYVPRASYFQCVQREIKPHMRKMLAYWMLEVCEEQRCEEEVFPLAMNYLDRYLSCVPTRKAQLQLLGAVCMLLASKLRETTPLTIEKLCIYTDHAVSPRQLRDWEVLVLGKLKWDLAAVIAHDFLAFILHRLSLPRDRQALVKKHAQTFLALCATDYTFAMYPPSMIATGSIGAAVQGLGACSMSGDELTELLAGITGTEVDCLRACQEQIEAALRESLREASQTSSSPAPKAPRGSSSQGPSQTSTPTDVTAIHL
CDK6/cyclin D3, sequence (Q00534 whole entry): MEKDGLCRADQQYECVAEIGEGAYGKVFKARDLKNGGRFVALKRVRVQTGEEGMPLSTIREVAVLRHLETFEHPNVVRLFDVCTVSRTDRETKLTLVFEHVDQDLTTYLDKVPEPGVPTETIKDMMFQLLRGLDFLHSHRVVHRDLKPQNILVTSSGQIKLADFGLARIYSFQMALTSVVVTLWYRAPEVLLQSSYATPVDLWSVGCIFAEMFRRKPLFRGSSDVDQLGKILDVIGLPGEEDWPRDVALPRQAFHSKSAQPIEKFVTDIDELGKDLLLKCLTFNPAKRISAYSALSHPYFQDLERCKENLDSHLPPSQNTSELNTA
Series [13] can be described thus: Half life in Sprague-Dawley rat at 20 mg/kg, po by LC-MS/MS analysis. The series is classed as ADME, organism-based. To be noted: in vivo.
In series [14] the test system is OVCAR-3. As to the kind of experiment: Downregulation of proliferation-related signaling pathway gene expression in human OVCAR-3 cells by GSEA. The format is functional, cell-based.
The nature of series [15]: Oral bioavailability in Sprague-Dawley rat at 20 mg/kg by LC-MS/MS analysis. The series is classed as ADME, organism-based. The settings on record: in vivo.
In series [16] the test system is OVCAR-3. Put plainly: Induction of apoptosis in human OVCAR-3 cells assessed as viable cells at 2 uM incubated for 24 hrs by Annexin V-FITC/PI staining based flow cytometry analysis (reference value: 95.2%). The format is functional. To be noted: read-out: Activity.
Series [17] can be described thus: Acute toxicity in ICR mouse assessed as animal death at 1000 to 2500 mg/kg, po administered once for 14 days. The series is classed as organism-based. To be noted: in vivo, 336 h, dose 1000-2500 mg/kg, time 14 day.
Series [18] in a line: Acute toxicity in ICR mouse assessed as effect on heart weight at 1000 to 2500 mg/kg, po administered once for 14 days. The series is classed as organism-based. The settings on record: in vivo, 336 h, dose 1000-2500 mg/kg, time 14 day.
Series [19] can be described thus: MRT (0 to infinity) in Sprague-Dawley rat at 20 mg/kg, po by LC-MS/MS analysis. The format is ADME, organism-based. To be noted: in vivo.
Series [20] relates to OVCAR-3. Put plainly: Induction of cell cycle arrest in human OVCAR-3 cells assessed as accumulation of cells at G1 phase at 1 uM incubated for 24 hrs by flow cytometry analysis (reference value: 67.73%). The format is functional.
The nature of series [21]: Clearance in Sprague-Dawley rat at 20 mg/kg, po by LC-MS/MS analysis. The format is ADME, organism-based. The settings on record: in vivo.
Series [22] relates to OVCAR-3. As to the kind of experiment: Induction of cell cycle arrest in human OVCAR-3 cells assessed as inhibition of RB phosphorylation level incubated for 24 hrs by Western blot analysis. The series is classed as functional, cell-based.
Series [23] in a line: MRT (0 to infinity) in Sprague-Dawley rat at 2 mg/kg, iv by LC-MS/MS analysis. The series is classed as ADME, organism-based. To be noted: in vivo.

CDK1/Cyclin A, sequence (P06493 whole entry): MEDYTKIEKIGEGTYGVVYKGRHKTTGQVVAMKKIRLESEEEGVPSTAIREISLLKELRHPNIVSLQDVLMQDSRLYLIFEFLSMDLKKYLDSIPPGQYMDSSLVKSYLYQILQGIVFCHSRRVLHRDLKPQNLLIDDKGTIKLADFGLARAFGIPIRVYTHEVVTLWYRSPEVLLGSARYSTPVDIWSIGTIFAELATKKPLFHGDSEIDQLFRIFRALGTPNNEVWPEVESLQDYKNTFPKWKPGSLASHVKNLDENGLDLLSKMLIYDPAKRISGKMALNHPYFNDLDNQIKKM
CDK1/Cyclin A, sequence (P20248 whole entry, further chain): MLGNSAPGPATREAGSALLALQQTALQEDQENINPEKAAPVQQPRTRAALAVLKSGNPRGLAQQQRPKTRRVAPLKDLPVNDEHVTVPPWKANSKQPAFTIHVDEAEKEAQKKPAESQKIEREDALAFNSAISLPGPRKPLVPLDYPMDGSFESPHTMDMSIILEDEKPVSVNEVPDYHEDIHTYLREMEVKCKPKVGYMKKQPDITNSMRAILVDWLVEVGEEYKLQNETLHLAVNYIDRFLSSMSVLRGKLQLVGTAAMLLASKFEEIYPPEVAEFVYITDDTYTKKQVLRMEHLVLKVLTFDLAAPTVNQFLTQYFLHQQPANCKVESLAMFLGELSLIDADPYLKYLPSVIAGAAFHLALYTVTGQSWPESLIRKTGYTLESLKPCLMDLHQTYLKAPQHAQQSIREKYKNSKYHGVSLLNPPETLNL

For the compound `CCC(C)n1cc(-c2nc(NC3CCN(S(=O)(=O)C4CC4)CC3)ncc2F)cc(F)c1=O` (stereo not drawn), the Activity was 2.65% in series [1]; “Non-toxic” in [6]; “Dose-dependent-effect” in [11]; “Non-toxic” in series [17]; “Non-toxic” in series [18]; 94.69% in series [20]. Also, the half-maximal inhibitory concentration (IC50) turned out to be 954 nM in series [2], 1610 nM in series [8], 15 nM in [9] and 171 nM in [12]. For the same compound, the result in series [3], in series [14] and in series [22] was Active. Further, the inhibition result in series [4] is “Dose-dependent-effect”. Moreover, the AUC(0-inf) in series [5] was determined as 1480 ng·h/mL. Moreover, the viability at 1 µM in series [7] turned out to be 84.6%. Besides, the clearance in series [10] was 28.3 mL/min/kg. The compound also had a half-life in series [13] of 4.54 h. Besides, in [15], the bioavailability was found to be 79.5%. Further, in [16], the viability at 2 µM was determined as 79.3%. The MRT inf in [19] amounted to 6.7 h; in [23] it was 0.82 h. This compound showed a CL/F in series [21] of 29.2 mL/min/kg.
